Measured values taken from PubChem BioAssay AID1963830 (Molecular Pharmacology Branch, DTP, NCI, 2024).
Several values for one entry are separate records, joined by “and”; a condition that tells them apart may be missing. Equal entries are not always repeated.

Tested on: 922993-354-T-J3-PDC complex spheroid viability
Assay: Anticancer human tumor 922993-354-T-J3-PDC patient-derived endometrial carcinoma cell line growth inhibition [POLQ]
Settings: for viability, T/C: stronger effect = lower value; for IC50: curve of compound
Procedure: Multicellular complex tumor spheroid response to Polymerase (POL) inhibitors (novobiocin, ART-558, RP6685) in combination with a variety of drugs and investigational agents in selected tumor cell lines
The POL inhibitors (novobiocin, ART-558, and RP6685) were evaluated both individually and in combination with standard of care and investigational anticancer small molecules within a complex spheroid model of solid tumors. . Complex spheroids include a stromal component modeled by human endothelial cells (HUVEC) and fibroblasts modeled by human mesenchymal stem cells (MSCs). The concentration ranges selected for each drug and investigational agent were based upon clinically achievable concentrations if the clinical Cmax of the agent was known.
Compounds. The drugs and investigational agents: novobiocin (NSC847541), ART-558 (NSC835418), RP-6685 (NSC848927), peposertib (NSC802822), ceralasertib (NSC780249), elimusertib (NSC800525), camonsertib (NSC841442), AZD-1390 (NSC803789), olaparib (NSC753686), talazoparib (NSC767125), rucaparib (NSC756644), sotorasib (NSC818433), MRTX-1133 (NSC836407), SN-38 (NSC673596), topotecan (NSC609699), epotoside (NSC141540), doxorubicin (NSC123127), gemcitabine (NSC613327), 5-fluorouracil (NSC19893), paclitaxel (NSC125973), vemurafenib (NSC761431), MSA-2 (NSC828583), SN-011 (NSC837082), adavosertib (NSC754352), prexasertib (NSC758257), carboplatin (NSC241240) and oxaliplatin (NSC266046), were obtained from the National Cancer Institute (NCI) Developmental Therapeutics Program Chemical Repository (21). The FDA-approved anticancer drug set is available from the Developmental Therapeutics Program at https://dtp.cancer.gov/organization/dscb/obtaining/. […] The stock solutions were prepared in dimethyl sulfoxide (DMSO, Sigma-Aldrich, St. Louis, MO, cat. D2650), except for the platinum compounds which were prepared in saline (Quality Biological, Gaithersburg, MD, cat. 114-055-101), at 800-fold the tested concentration and stored at -70 degrees C prior to their use. All drugs and investigational agents were tested over a range starting from a high concentration at or near the clinical Cmax and decreasing in half-log increments. If the clinical Cmax for an agent had not been determined, the highest concentration tested was 10 microM, except for SN-38, which was tested at a high concentration of 1 microM.
Cell Culture. All cells were maintained in an incubator at 37 degrees C and 5% CO2 with 95% humidity. The PDC lines were cultured according to standard operating procedures established by the NCI PDMR (https://pdmr.cancer.gov). Table 3 of the manuscript, lists the cell lines along with the number of the three cell types plated to form the mct-spheroids and media for tumor cell growth. After thawing, all PDC lines, except 997537-175-T-J1-PDC and 415267-285-R-J2-PDC, were cultured in Matrigel-coated flasks prepared with a working solution of 1X Ham's F-12 nutrient mix, without supplementation (Thermo Fisher Scientific, cat. 11765054), 100 U/mL penicillin-streptomycin (Thermo Fisher Scientific, cat. 15140122), and 2.5% Matrigel (Corning Inc., Corning, NY, cat. 354248) for the first three passages. The two PDC lines 997537-175-T-J1-PDC and 415267-285-R-J2-PDC were cultured on uncoated flasks. The 857933-349-R-J2-PDC line was cultured in 6C/Colon 1B media containing advanced DMEM/F-12 (Thermo Fisher Scientific, cat. 12634028), 10 mM HEPES (Thermo Fisher Scientific, cat. 15630080), 1X GlutaMAX supplement (Thermo Fisher Scientific, cat. 35050061), 0.1 mg/mL primocin (InvivoGen, San Diego, CA, cat. ant-pm-2), 10% defined fetal bovine serum, heat inactivated (HyClone Laboratories Inc., Logan, UT, cat. SH30070.03HI), 50% L-WRN conditioned media (ATCC, cat. CRL-3276), 1.25 mM N-Acetyl-L-cysteine (Sigma-Aldrich, cat. A9165), 10 mM nicotinamide (Sigma-Aldrich, cat. N0636), 1X B-27 supplement (Thermo Fisher Scientific, cat. 17504044), 1X N-2 supplement (Thermo Fisher Scientific, cat. […]
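Note: spheroids exposed to the agents for one week.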
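Throughout, for viability, T/C: 100% = DMSO vehicle control wells.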

## CC1COCCN1c1cc(C2(S(C)(=N)=O)CC2)nc(-c2ccnc3[nH]ccc23)n1 (centres undefined)
Compound 0.0316 µM
  viability, T/C: 98.8% and 101% and 94%
Compound 0.1 µM
  viability, T/C: 94.9% and 100% and 90.1%
Compound 0.316 µM
  viability, T/C: 91.1% and 101% (2×)
Compound 1 µM
  viability, T/C: 97% and 102% and 99.8%
Compound 3.16 µM
  viability, T/C: 93.2% and 104% and 78.1%
Compound 10 µM
  viability, T/C: 46.8% and 92.4% and 45%
  IC50: 9.23 µM and > 10 µM and 8.4 µM

## CCCS(=O)(=O)Nc1ccc(F)c(C(=O)c2c[nH]c3ncc(-c4ccc(Cl)cc4)cc23)c1F
Compound 0.0316 µM
  viability, T/C: 101% and 107% and 102%
Compound 0.1 µM
  viability, T/C: 102% and 103% and 98.4%
Compound 0.316 µM
  viability, T/C: 105% and 106% and 94.1%
Compound 1 µM
  viability, T/C: 104% and 107% and 109%
Compound 3.16 µM
  viability, T/C: 97.1% and 103% and 105%
Compound 10 µM
  viability, T/C: 98.9% and 92.4% and 69.4%
  IC50: > 10 µM

## CC[C@@]1(O)C(=O)OCc2c1cc1n(c2=O)Cc2cc3c(CN(C)C)c(O)ccc3nc2-1
Compound 0.000316 µM
  viability, T/C: 92.2% and 105% and 98.3%
Compound 0.001 µM
  viability, T/C: 103% and 105% and 84%
Compound 0.00316 µM
  viability, T/C: 101% and 97.8% and 99.3%
Compound 0.01 µM
  viability, T/C: 98.3% and 98.7% and 106%
Compound 0.0316 µM
  viability, T/C: 86.9% and 98% and 91.8%
Compound 0.1 µM
  viability, T/C: 54.7% and 87.9% and 41.4%
  IC50: > 0.1 µM and 0.0827 µM

## CCc1c2c(nc3ccc(O)cc13)-c1cc3c(c(=O)n1C2)COC(=O)[C@]3(O)CC
Compound 0.00316 µM
  viability, T/C: 78.9% and 100% and 95.3%
Compound 0.01 µM
  viability, T/C: 51.6% and 79.5% and 29.8%
Compound 0.0316 µM
  viability, T/C: 13% and 39.8% and 14.1%
Compound 0.1 µM
  viability, T/C: 12.4% and 20.3% and 11.5%
Compound 0.316 µM
  viability, T/C: 15.2% and 19.6% and 12.8%
Compound 1 µM
  viability, T/C: 16.6% and 28.6% and 14.5%
  IC50: 0.0105 µM and 0.023 µM and 0.00703 µM

## CCc1cc2c(N3CCc4c(cc(Cn5ccnc5)cc4-c4cn(C)nc4C(F)(F)F)C3=O)cc(C)nc2c(OC)n1
Compound 0.0316 µM
  viability, T/C: 93.1% and 105% and 99.3%
Compound 0.1 µM
  viability, T/C: 106% and 104% and 101%
Compound 0.316 µM
  viability, T/C: 98% and 103% and 106%
Compound 1 µM
  viability, T/C: 108% and 107% and 106%
Compound 3.16 µM
  viability, T/C: 99.3% and 102% and 104%
Compound 10 µM
  viability, T/C: 71.7% and 94.3% and 102%
  IC50: > 10 µM

## CCc1cc2c(N3CCc4c(cc(Cn5ccnc5)cc4-c4cn(C)nc4C(F)(F)F)C3=O)ccnc2c(OC)n1
Compound 0.0316 µM
  viability, T/C: 109% and 106% and 102%
Compound 0.1 µM
  viability, T/C: 94.3% and 98% and 103%
Compound 0.316 µM
  viability, T/C: 87.5% and 105% and 107%
Compound 1 µM
  viability, T/C: 107%
Compound 3.16 µM
  viability, T/C: 91.8% and 108% and 103%
Compound 10 µM
  viability, T/C: 80.9% and 97.6% and 101%
  IC50: > 10 µM

## CNCc1ccc(-c2[nH]c3cc(F)cc4c3c2CCNC4=O)cc1
Compound 0.0316 µM
  viability, T/C: 94.6% and 105% and 109%
Compound 0.1 µM
  viability, T/C: 96.8% and 100% and 90.3%
Compound 0.316 µM
  viability, T/C: 93.7% and 96% and 96.1%
Compound 1 µM
  viability, T/C: 105% and 97.1% and 96%
Compound 3.16 µM
  viability, T/C: 85.2% and 99.3% and 90.9%
Compound 10 µM
  viability, T/C: 86.2% and 96.2% and 71.4%
  IC50: > 10 µM
